The results in this text go back to publication PMC6267221, “Renal Cell Carcinoma Is Abrogated by p53 Stabilization through Transglutaminase 2 Inhibition” (Cancers, 2018).

Assay [1] addresses T1, guinea pig liver TGase 2 (UniProt P08587).
T1 construct: gene TGM2
T1 sequence (P08587 2-690): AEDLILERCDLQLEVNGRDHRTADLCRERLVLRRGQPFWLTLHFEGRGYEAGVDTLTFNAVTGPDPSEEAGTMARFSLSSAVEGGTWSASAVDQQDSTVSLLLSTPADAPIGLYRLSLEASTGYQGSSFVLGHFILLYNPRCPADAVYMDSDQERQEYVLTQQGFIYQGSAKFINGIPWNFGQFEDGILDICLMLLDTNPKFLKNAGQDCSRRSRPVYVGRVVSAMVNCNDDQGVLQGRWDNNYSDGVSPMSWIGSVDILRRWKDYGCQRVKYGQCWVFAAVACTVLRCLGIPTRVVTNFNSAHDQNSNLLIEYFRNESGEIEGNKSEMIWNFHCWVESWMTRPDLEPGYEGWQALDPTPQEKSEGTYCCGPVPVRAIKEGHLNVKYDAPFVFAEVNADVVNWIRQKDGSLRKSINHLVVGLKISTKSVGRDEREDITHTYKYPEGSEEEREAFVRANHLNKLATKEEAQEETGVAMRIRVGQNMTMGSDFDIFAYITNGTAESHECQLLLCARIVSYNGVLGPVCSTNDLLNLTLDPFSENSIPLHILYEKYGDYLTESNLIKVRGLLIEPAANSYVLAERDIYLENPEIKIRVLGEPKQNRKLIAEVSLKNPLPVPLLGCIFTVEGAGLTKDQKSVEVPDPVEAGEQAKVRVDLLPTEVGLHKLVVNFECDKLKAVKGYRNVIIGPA
As to the kind of experiment: succinylated casein / […]-putrescine incorporation assay. It is filed as biochemical, Cavia cutleri.

Assay [2] addresses T2, transglutaminase 2 (TGase 2) (Homo sapiens, UniProt P21980).
T2 construct: gene TGM2; recombinant human TGase 2, polyhistidine-tagged
T2 sequence (P21980 2-687): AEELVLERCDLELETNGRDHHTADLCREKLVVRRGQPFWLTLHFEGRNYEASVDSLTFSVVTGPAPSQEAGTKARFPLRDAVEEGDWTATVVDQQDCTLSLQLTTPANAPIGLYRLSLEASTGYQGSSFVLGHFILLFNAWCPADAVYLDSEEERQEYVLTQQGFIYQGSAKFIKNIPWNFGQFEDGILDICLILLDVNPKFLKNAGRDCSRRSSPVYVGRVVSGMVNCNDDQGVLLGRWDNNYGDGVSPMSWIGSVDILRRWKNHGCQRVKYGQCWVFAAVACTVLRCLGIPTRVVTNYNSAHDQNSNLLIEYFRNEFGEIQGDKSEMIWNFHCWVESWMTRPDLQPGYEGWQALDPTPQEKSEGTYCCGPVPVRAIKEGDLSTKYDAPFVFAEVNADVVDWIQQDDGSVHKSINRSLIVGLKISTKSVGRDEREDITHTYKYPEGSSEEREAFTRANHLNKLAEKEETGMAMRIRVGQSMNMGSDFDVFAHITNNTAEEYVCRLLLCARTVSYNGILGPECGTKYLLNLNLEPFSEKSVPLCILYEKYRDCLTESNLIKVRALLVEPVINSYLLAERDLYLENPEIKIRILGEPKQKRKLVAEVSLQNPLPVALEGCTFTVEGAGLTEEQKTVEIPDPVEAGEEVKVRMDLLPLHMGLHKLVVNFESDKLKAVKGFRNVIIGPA
Briefly: SPR (ProteOn XPR36); MS peptide masking supports the site. It is filed as binding.

Assay [3] concerns the target T3, TGase 2 (as run on native gels), P21980.
T3 chain: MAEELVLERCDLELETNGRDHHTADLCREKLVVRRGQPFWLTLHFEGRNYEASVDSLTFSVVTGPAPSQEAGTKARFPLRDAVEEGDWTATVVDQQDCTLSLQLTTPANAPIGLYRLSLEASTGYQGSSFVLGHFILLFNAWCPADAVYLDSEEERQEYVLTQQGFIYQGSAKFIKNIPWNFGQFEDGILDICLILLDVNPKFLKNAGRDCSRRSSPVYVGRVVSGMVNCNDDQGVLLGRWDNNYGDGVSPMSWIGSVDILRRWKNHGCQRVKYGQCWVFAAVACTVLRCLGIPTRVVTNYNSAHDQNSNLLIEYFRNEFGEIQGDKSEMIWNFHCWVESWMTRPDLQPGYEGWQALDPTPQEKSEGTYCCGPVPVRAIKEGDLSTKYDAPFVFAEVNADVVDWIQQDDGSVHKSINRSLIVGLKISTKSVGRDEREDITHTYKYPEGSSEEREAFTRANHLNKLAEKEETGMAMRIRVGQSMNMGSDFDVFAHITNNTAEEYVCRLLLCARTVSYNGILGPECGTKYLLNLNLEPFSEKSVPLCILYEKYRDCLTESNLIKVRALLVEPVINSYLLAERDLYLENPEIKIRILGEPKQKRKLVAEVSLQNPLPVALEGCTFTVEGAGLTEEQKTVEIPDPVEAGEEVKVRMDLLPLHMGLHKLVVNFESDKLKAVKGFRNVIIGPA
As to the kind of experiment: native gel or EMSA; TGase 2 incubated with streptonigrin or GTP, 37 °C; native gel, immunoblot of TGase 2; monomer to dimer. To be noted: remark: other sources report otherwise.

Consider `COC1=C(N)C(=O)c2nc(-c3nc(C(=O)O)c(C)c(-c4ccc(OC)c(OC)c4O)c3N)ccc2C1=O` [streptonigrin], for which, in assay [1], inhibition was half-maximal at 1700 nM (IC50). This molecule also gave a Kd in assay [2] of roughly 700 nM.

B1: TGase 2 (as run on native gels), P21980 1-687 (enzyme)
chain: MAEELVLERCDLELETNGRDHHTADLCREKLVVRRGQPFWLTLHFEGRNYEASVDSLTFSVVTGPAPSQEAGTKARFPLRDAVEEGDWTATVVDQQDCTLSLQLTTPANAPIGLYRLSLEASTGYQGSSFVLGHFILLFNAWCPADAVYLDSEEERQEYVLTQQGFIYQGSAKFIKNIPWNFGQFEDGILDICLILLDVNPKFLKNAGRDCSRRSSPVYVGRVVSGMVNCNDDQGVLLGRWDNNYGDGVSPMSWIGSVDILRRWKNHGCQRVKYGQCWVFAAVACTVLRCLGIPTRVVTNYNSAHDQNSNLLIEYFRNEFGEIQGDKSEMIWNFHCWVESWMTRPDLQPGYEGWQALDPTPQEKSEGTYCCGPVPVRAIKEGDLSTKYDAPFVFAEVNADVVDWIQQDDGSVHKSINRSLIVGLKISTKSVGRDEREDITHTYKYPEGSSEEREAFTRANHLNKLAEKEETGMAMRIRVGQSMNMGSDFDVFAHITNNTAEEYVCRLLLCARTVSYNGILGPECGTKYLLNLNLEPFSEKSVPLCILYEKYRDCLTESNLIKVRALLVEPVINSYLLAERDLYLENPEIKIRILGEPKQKRKLVAEVSLQNPLPVALEGCTFTVEGAGLTEEQKTVEIPDPVEAGEEVKVRMDLLPLHMGLHKLVVNFESDKLKAVKGFRNVIIGPA
Take B1: in assay [3], the fold increase in the density of the dimer band after streptonigrin treatment was determined as 2.4 fold and the stoichiometry N stood at 2.
